Values of other authors, collected in patent US20130315977A1, “TRANSDERMAL PATCH” (priority 2011, published 2013).

Columns and labels:
[1] = molecular target: dopamine D2 (Homo sapiens, UniProt P14416); conditions: as compared to haloperidol
[2] = test system: serotonin 5-HT2 receptor; conditions: as compared to haloperidol

Chain of dopamine D2 (P14416 whole entry): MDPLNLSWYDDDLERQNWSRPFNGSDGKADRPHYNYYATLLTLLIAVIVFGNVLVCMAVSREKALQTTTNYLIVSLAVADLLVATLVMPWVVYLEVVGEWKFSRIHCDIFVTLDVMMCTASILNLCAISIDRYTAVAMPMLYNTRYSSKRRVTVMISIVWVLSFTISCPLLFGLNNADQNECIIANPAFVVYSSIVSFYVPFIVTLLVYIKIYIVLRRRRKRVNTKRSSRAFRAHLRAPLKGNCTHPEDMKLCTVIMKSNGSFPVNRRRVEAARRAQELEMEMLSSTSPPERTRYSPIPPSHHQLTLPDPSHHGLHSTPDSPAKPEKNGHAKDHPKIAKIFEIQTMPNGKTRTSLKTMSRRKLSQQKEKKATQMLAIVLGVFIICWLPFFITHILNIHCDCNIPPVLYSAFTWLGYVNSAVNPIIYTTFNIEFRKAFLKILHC

affinity for dopamine D2 [1]: high affinity
affinity for serotonin 5-HT2 receptor [2]: high affinity
SMILES: CCN1CCN(c2cc(-c3ccc(F)cc3)c3c(n2)CCCCCC3)CC1 [Blonanserin, 2-(4-ethyl-1-piperazinyl)-4-(4-fluorophenyl)-5,6,7,8,9,10-hexahydrocycloocta[b]pyridine]
